{"source": "ChEMBL document CHEMBL4715892", "about": "“Synthesis of novel quinoxaline-alkynyl derivatives and their anti-Mycobacterium tuberculosis activity” (Bioorg Med Chem Lett, 2021)", "key": {"[1]": {"test_system": "Mycobacterium tuberculosis", "experiment": "Antitubercular activity against Mycobacterium tuberculosis H37Rv assessed as reduction in microbial growth after 7 to 14 days by broth dilution method", "assay_type": "functional", "settings": "time 7-14 day"}, "[2]": {"experiment": "Selectivity index ratio of IC50 for cytotoxicity against mouse RAW264.7 cells to MIC90 for antitubercular activity against Mycobacterium tuberculosis H37Rv", "assay_type": "toxicity, cell-based", "settings": "read-out: Selectivity Index"}, "RAW264.7": {"test_system": "RAW264.7", "experiment": "Cytotoxicity against mouse RAW264.7 cells assessed as reduction in cell viability up to 24 hrs by MTT assay", "assay_type": "cell-based", "settings": "RAW264.7, 24 h"}}, "data": [{"smiles": "O=C(OCC#Cc1cnc2cc(Cl)ccc2n1)c1cccs1", "values": [{"measurement": "MIC90", "setting": "[1]", "value": 11.2, "unit": "µM"}, {"measurement": "selectivity ratio", "setting": "[2]", "value": 1}, {"measurement": "IC50", "setting": "RAW264.7", "value": 11.3, "unit": "µM"}]}, {"smiles": "O=C(OCC#Cc1cnc2cc([N+](=O)[O-])ccc2n1)c1cccs1", "values": [{"measurement": "MIC90", "setting": "[1]", "value": 2.74, "unit": "µM"}, {"measurement": "selectivity ratio", "setting": "[2]", "value": 7.24}, {"measurement": "IC50", "setting": "RAW264.7", "value": 19.9, "unit": "µM"}]}, {"smiles": "CC(=O)OCC#Cc1cnc2cc([N+](=O)[O-])ccc2n1", "values": [{"measurement": "MIC90", "setting": "[1]", "value": 1.8, "unit": "µM"}, {"measurement": "selectivity ratio", "setting": "[2]", "value": 7.3}, {"measurement": "IC50", "setting": "RAW264.7", "value": 13.2, "unit": "µM"}]}, {"smiles": "OCC#Cc1cnc2cc(Cl)ccc2n1", "values": [{"measurement": "MIC90", "setting": "[1]", "value": 15.9, "unit": "µM"}, {"measurement": "selectivity ratio", "setting": "[2]", "value": 2.22}, {"measurement": "IC50", "setting": "RAW264.7", "value": 35.3, "unit": "µM"}]}, {"smiles": "O=C(OCC#Cc1cnc2ccccc2n1)c1ccccc1", "values": [{"measurement": "MIC90", "setting": "[1]", "value": 16.2, "unit": "µM"}, {"measurement": "selectivity ratio", "setting": "[2]", "value": 3.4}, {"measurement": "IC50", "setting": "RAW264.7", "value": 55.6, "unit": "µM"}]}, {"smiles": "O=CC#Cc1cnc2ccccc2n1", "values": [{"measurement": "MIC90", "setting": "[1]", "value": 4.55, "unit": "µM"}, {"measurement": "selectivity ratio", "setting": "[2]", "value": 69.5}, {"measurement": "IC50", "setting": "RAW264.7", "value": 316, "unit": "µM"}]}, {"smiles": "CS(=O)(=O)OCC#Cc1cnc2cc(Cl)ccc2n1", "values": [{"measurement": "MIC90", "setting": "[1]", "value": 54.5, "unit": "µM"}]}, {"smiles": "CC(=O)OCC#Cc1cnc2cc(Cl)ccc2n1", "values": [{"measurement": "MIC90", "setting": "[1]", "value": 16.5, "unit": "µM"}, {"measurement": "selectivity ratio", "setting": "[2]", "value": 1.22}, {"measurement": "IC50", "setting": "RAW264.7", "value": 20.2, "unit": "µM"}]}, {"smiles": "O=C(OCC#Cc1cnc2cc([N+](=O)[O-])ccc2n1)c1ccccc1", "values": [{"measurement": "MIC90", "setting": "[1]", "value": 93.8, "unit": "µM"}, {"measurement": "selectivity ratio", "setting": "[2]", "value": 2.6}, {"measurement": "IC50", "setting": "RAW264.7", "value": 248, "unit": "µM"}]}, {"smiles": "O=C(OCC#Cc1cnc2ccccc2n1)c1cccs1", "values": [{"measurement": "MIC90", "setting": "[1]", "value": 27, "unit": "µM"}, {"measurement": "selectivity ratio", "setting": "[2]", "value": 1.44}, {"measurement": "IC50", "setting": "RAW264.7", "value": 39, "unit": "µM"}]}, {"smiles": "CC(=O)OCC#Cc1cnc2ccccc2n1", "values": [{"measurement": "MIC90", "setting": "[1]", "value": 18.1, "unit": "µM"}, {"measurement": "selectivity ratio", "setting": "[2]", "value": 2.64}, {"measurement": "IC50", "setting": "RAW264.7", "value": 47.7, "unit": "µM"}]}, {"smiles": "CS(=O)(=O)OCC#Cc1cnc2ccccc2n1", "values": [{"measurement": "MIC90", "setting": "[1]", "value": 6.47, "unit": "µM"}, {"measurement": "selectivity ratio", "setting": "[2]", "value": 5.7}, {"measurement": "IC50", "setting": "RAW264.7", "value": 36.8, "unit": "µM"}]}, {"smiles": "O=C(OCC#Cc1cnc2cc(Cl)ccc2n1)c1ccccc1", "values": [{"measurement": "MIC90", "setting": "[1]", "value": 57.6, "unit": "µM"}, {"measurement": "selectivity ratio", "setting": "[2]", "value": 1.43}, {"measurement": "IC50", "setting": "RAW264.7", "value": 82.3, "unit": "µM"}]}, {"smiles": "O=CC#Cc1cnc2cc(Cl)ccc2n1", "values": [{"measurement": "MIC90", "setting": "[1]", "value": 1.13, "unit": "µM"}, {"measurement": "selectivity ratio", "setting": "[2]", "value": 4.1}, {"measurement": "IC50", "setting": "RAW264.7", "value": 4.6, "unit": "µM"}]}, {"smiles": "O=[N+]([O-])c1ccc2nc(C#CCO)cnc2c1", "values": [{"measurement": "MIC90", "setting": "[1]", "value": 4.26, "unit": "µM"}, {"measurement": "selectivity ratio", "setting": "[2]", "value": 7.3}, {"measurement": "IC50", "setting": "RAW264.7", "value": 31.2, "unit": "µM"}]}, {"smiles": "CS(=O)(=O)OCC#Cc1cnc2cc([N+](=O)[O-])ccc2n1", "values": [{"measurement": "MIC90", "setting": "[1]", "value": 1.59, "unit": "µM"}, {"measurement": "selectivity ratio", "setting": "[2]", "value": 8.5}, {"measurement": "IC50", "setting": "RAW264.7", "value": 13.5, "unit": "µM"}]}, {"smiles": "OCC#Cc1cnc2ccccc2n1", "values": [{"measurement": "MIC90", "setting": "[1]", "value": 52.7, "unit": "µM"}, {"measurement": "selectivity ratio", "setting": "[2]", "value": 0.83}, {"measurement": "IC50", "setting": "RAW264.7", "value": 43.7, "unit": "µM"}]}, {"smiles": "CO[C@H]1/C=C/O[C@@]2(C)Oc3c(C)c(O)c4c(O)c(c(/C=N/N5CCN(C)CC5)c(O)c4c3C2=O)NC(=O)/C(C)=C\\C=C\\[C@H](C)[C@H](O)[C@@H](C)[C@@H](O)[C@@H](C)[C@H](OC(C)=O)[C@@H]1C", "note": "[RIFAMPIN]", "values": [{"measurement": "MIC90", "setting": "[1]", "value": 0.01, "unit": "µM"}]}]}
